Experimental data as given in PMC8305101, “Synthesis and Cytotoxicity Evaluation of Spirocyclic Bromotyrosine Clavatadine C Analogs” (Marine Drugs, 2021).
Several values for one entry are separate records, joined by “and”; a condition that tells them apart may be missing. Equal entries are not always repeated. Structures can show the parent of a compound that is named as a salt. Where two headings read alike, the source gives them in different places.

Experiments:
[1] = system: human malignant melanoma A-375 cell line; test: Cytotoxicity in A-375 melanoma cells (CellTiter-Glo ATP viability); type: cell-based; details: for CC50 / cytotoxicity at 50 µM: Homo sapiens; for CC50: read-out: CC50 (µM) in A-375 Cells; for Selectivity Index (SI): ratio of CC50 values between Hs27 fibroblasts and A-375 melanoma cells, SD in parentheses
Method: (§1) Analysis of selectivity to cancer cells. The cells were seeded to white frame and clear bottom 96-well plates (Perkin Elmer) at a density of 10,000 cells/well for the human malignant melanoma A-375 cell line (ATCC CRL-1619) and 7500 cells/well for the human skin fibroblast Hs27 cell line (ATCC CRL-1634). The cells were grown at 37 °C, 5% CO2 until they reached 70–80% confluence (approximately 24 h). Stock solutions of test compounds and a positive control (camptothecin, Sigma-Aldrich, St. Louis, MO, USA) were prepared in DMSO and diluted into the assay medium (growth medium with 5% FBS) to the final concentration. Final DMSO concentration was 0.5% in all samples. The culture medium was removed from the plate and compounds added, 200 µL/well. After a 48-h incubation, the amount of ATP, which is directly proportional to the number of viable cells present in culture, was quantified using CellTiter-Glo® Luminescent Cell Viability kit (Promega, Madison, WI, USA), according to manufacturer’s instructions. Origin Graphing and Analysis, version 9.55 (OriginLab, Northampton, MA, USA), was used for determination of CC50 values. The cancer cell selectivity index was calculated as a ratio of CC50 values between Hs27 fibroblasts and A-375 melanoma cells. Standard deviation of selectivity indices was calculated using Equation (1) (1) σ(x¯/y¯)=(σ(x)/x¯)^2+(σ(y)/y¯)^2

[2] = system: MCF7 (breast) cancer cell line; design: method as in doi:10.1016/j.tetlet.2016.10.019; details: cited from earlier work
[3] = system: MDA-MB-231 (breast) cancer cell line; design: method as in doi:10.1016/j.tetlet.2016.10.019; details: cited from earlier work
[4] = system: A549 (lung) cancer cell line; design: method as in doi:10.1016/j.tetlet.2016.10.019; details: cited from earlier work
[5] = Cytotoxicity in Hs27 normal skin fibroblasts (CellTiter-Glo ATP viability); type: cell-based; details: human, 48-h incubation, mean (SD) of 2–3 independent experiments in triplicate
Method: as §1

[6] = system: caspases 3/7 in A-375 cells; test: Apoptosis induction assay, caspase-3/7 activity (ApoTox-Glo) in A-375 cells; type: cell-based, human; details: 1 × CC50 concentration
Method: Apoptosis induction assay and imaging. A-375 cells were seeded to white 96-well plates and treated with compounds at 1 × CC50 concentration, 100 µL/well, following the procedure described above. After 24 and 48 h, caspase-3/7 activity was measured using the ApoTox-Glo kit (Promega) following the manufacturer’s instructions. The light microscopy images were taken using 4× phase contrast objective and Cytation5 automated imaging reader (Biotek).

[7] = system: breast cancer cell line MCF-7; design: method as in PMID 32228987; details: MCF-7 breast cancer cells; cited from earlier work
[8] = system: SKMel-147 melanoma cell line; design: method as in PMID 32228987; details: SKMel-147 melanoma cells; cited from earlier work
[9] = system: Mel-Juso melanoma cell line; design: method as in PMID 32228987; details: Mel-Juso melanoma cells; cited from earlier work
[10] = system: Malme-3M melanoma cell line; design: method as in PMID 32228987; details: Malme-3M melanoma cells; cited from earlier work
[11] = A-375, 48 h, read-out: Primary Test Results (Cytotoxicity % at 50 µM in A-375 Cells), 50 µM, A-375 cells, 48-h incubation, single experiment with three technical replicates
[12] = read-out: CC50 (µM) in Hs27 Cells

Row | Structure (SMILES) | CC50 ([1]; A-375, 48 h) [µM] | cytotoxicity at 50 µM [1, 11] [%] | Selectivity Index (SI) [1] | CC50 at 48 h [5, 12] [µM] | other results
1 | N=C(N)NCCCCNC(=O)C1=NOC2(C=C(Br)C(=O)C(Br)=C2)C1 [Compound 1-TFA, 7,9-Dibromo-N-(4-guanidinobutyl)-8-oxo-1-oxa-2-azaspiro[4.5]deca-2,6,9-triene-3-carboxamide] |  |  |  |  | Primary Test Results (Cytotoxicity % at 50 µM in A-375 Cells) ([1]; 50 µM, A-375 cells, 48-h incubation, single experiment with three technical replicates): less than 25% and 0.5%; Activity against MCF7 cancer cell line [2]: moderate activity; Activity against MDA-MB-231 cancer cell line [3]: moderate activity; Activity against A549 cancer cell line [4]: moderate activity
2 | O=C1C=CC2(C=C1)CC(C(=O)NCc1cccnc1)=NO2 [Compound 35, 8-Oxo-N-(pyridin-3-ylmethyl)-1-oxa-2-azaspiro[4.5]deca-2,6,9-triene-3-carboxamide] | 1.1 | 97.5 | 2.3 (0.1) | 2.5 | 
3 | O=C(Nc1cc(Cl)cc(Cl)c1)C1=NOC2(C=C(Br)C(=O)C(Br)=C2)C1 [Compound 19, 7,9-Dibromo-N-(3,5-dichlorophenyl)-8-oxo-1-oxa-2-azaspiro[4.5]deca-2,6,9-triene-3-carboxamide] | 9.2 | 94.9 | 0.7 (0.5) | 6.8 | 
4 | O=C1C=CC2(C=C1)CC(C(=O)NCCc1ccccn1)=NO2 [Compound 32, 8-Oxo-N-[2-(pyridin-2-yl)ethyl]-1-oxa-2-azaspiro[4.5]deca-2,6,9-triene-3-carboxamide] | 1.5 | 97.5 | 1.5 (0.9) | 2.2 | 
5 | O=C(Nc1ccccn1)C1=NOC2(C=C(Br)C(=O)C(Br)=C2)C1 [Compound 29, 7,9-Dibromo-8-oxo-N-(pyridin-2-yl)-1-oxa-2-azaspiro[4.5]deca-2,6,9-triene-3-carboxamide] | 2.4 | 101 | 2.4 (0.4) | 5.8 | 
6 | COc1ccc(CNC(=O)C2=NOC3(C=CC(=O)C=C3)C2)cc1 [Compound 23, N-(4-Methoxybenzyl)-8-oxo-1-oxa-2-azaspiro[4.5]deca-2,6,9-triene-3-carboxamide] | 1.2 | 100 | 1.2 (0.6) | 1.4 | 
7 | CC[C@@]1(O)C(=O)OCc2c1cc1n(c2=O)Cc2cc3ccccc3nc2-1 [Camptothecin, reference compound] |  |  | 70.9 (0.5) |  | cytotoxicity at 50 µM ([1]; 50 µM, A-375 cells, 48-h incubation, single experiment with three technical replicates, read-out: Primary Test Results (Cytotoxicity % at 50 µM in A-375 Cells)): 94.7%; CC50 ([1]; A-375 cells, 48-h incubation, mean (SD) of 2–3 independent experiments in triplicate): 0.05 µM; CC50 at 48 h ([5]; Hs27 skin fibroblast cells): 3.6 µM; Caspase 3/7 induction, fold change relative to DMSO-treated control ([6]; 24 h): ~20 fold; Caspase 3/7 induction, fold change relative to DMSO-treated control ([6]; 48 h): nearly fivefold
8 | Cn1nc(-c2ccc(Cl)cc2)cc1NC(=O)C1=NOC2(C=CC(=O)C=C2)C1 [Compound 40, N-[3-(4-Chlorophenyl)-1-methyl-1H-pyrazol-5-yl]-8-oxo-1-oxa-2-azaspiro[4.5]deca-2,6,9-triene-3-carboxamide] | 0.5 | 99.9 | 1.0 (0.8) | 0.5 | 
9 | O=C1C=CC2(C=C1)CC(C(=O)Nc1cccnc1)=NO2 [Compound 26, 8-Oxo-N-(pyridin-3-yl)-1-oxa-2-azaspiro[4.5]deca-2,6,9-triene-3-carboxamide] | 2 | 99.2 | 1.0 (0.8) | 1.9 | 
10 | O=C(NNC(=O)c1ccccn1)C1=NOC2(C=C(Br)C(=O)C(Br)=C2)C1 [Compound 38, 7,9-Dibromo-8-oxo-N’-picolinoyl-1-oxa-2-azaspiro[4.5]deca-2,6,9-triene-3-carbohydrazide] | 12.3 | 93.5 | 0.5 (0.5) | 6.4 | 
11 | O=C1C=CC2(C=C1)CC(C(=O)Nc1ccccn1)=NO2 [Compound 28, 8-Oxo-N-(pyridin-2-yl)-1-oxa-2-azaspiro[4.5]deca-2,6,9-triene-3-carboxamide] | 1.9 | 99.6 | 0.8 (0.4) | 1.5 | 
12 | O=C(Nc1cccnc1)C1=NOC2(C=C(Br)C(=O)C(Br)=C2)C1 [Compound 27, 7,9-Dibromo-8-oxo-N-(pyridin-3-yl)-1-oxa-2-azaspiro[4.5]deca-2,6,9-triene-3-carboxamide] | 3 | 101 | 2.2 (0.5) | 6.6 | 
13 | COC1=C(Br)[C@H](O)[C@@]2(C=C1Br)CC(C(=O)NCC(O)COc1c(Br)cc(C(O)CNC(=O)C3=NO[C@]4(C=C(Br)C(OC)=C(Br)[C@@H]4O)C3)cc1Br)=NO2 (stereo partly shown) [isofistularin-3] |  |  |  |  | Effect on cell viability [7]: reduced cell viability; Effect on cell viability [8]: no significant decrease; Effect on cell viability [9]: no significant decrease; Effect on cell viability [10]: no significant decrease
14 | O=C(NCCc1ccccn1)C1=NOC2(C=C(Br)C(=O)C(Br)=C2)C1 [Compound 33, 7,9-Dibromo-8-oxo-N-[2-(pyridin-2-yl)ethyl]-1-oxa-2-azaspiro[4.5]deca-2,6,9-triene-3-carboxamide] | 3.6 | 98.9 | 1.9 (0.6) | 6.6 | 
